Experimental data published in ChEMBL document CHEMBL6096728, “Simultaneous Induction of Immunogenic Pyroptosis and PD-L1 Downregulation by One Single Photosensitizer for Synergistic Cancer Photoimmunotherapy” (J Med Chem, 2025).
The source made the active and inactive calls. The rule behind the calls is not given here.

Columns and labels:
[1] = Toxicity in BALB/c mouse assessed as effect on kidney at 25 mg/kg, iv measured after 14 days by H and E staining based analysis; assay type: organism-based; conditions: in vivo, 336 h, time 14 day
[2] = Toxicity in BALB/c mouse assessed as effect on tumor at 25 mg/kg, iv measured after 14 days under light irradiation of 300 mW.cm/2 at 400 to 700nm measured after 5 mins by H and E staining based analysis; assay type: organism-based; conditions: in vivo, 336 h, 0.7 µM, time 14 day
[3] = tested on: 4T1; assay: Induction of pyroptosis in mouse 4T1 cells assessed as cell swelling at 0.5 uM preincubated with compound for 4 hrs followed by light irradiation of 20 mW.cm/2 at 400 to 700nm for 10 mins by confocal fluorescence microscopy analysis; assay type: functional, cell-based
[4] = tested on: MDA-MB-231; assay: Downregulation of PD-L1 expression level in human MDA-MB-231 cells at 0.1 to 0.5 uM incubated for 24 hrs under light irradiation of 20 mW.cm/2 at 400 to 700nm for 10 mins by Western blot analysis; assay type: functional, cell-based; conditions: dose 0.1-0.5 µM
[5] = Phototoxicity against human MDA-MB-231 cells preincubated for 24 hrs followed by light irradiation of 20 mW.cm/2 at 400 to 700nm for 10 mins under hypoxia condition by CCK-8 method; assay type: functional, cell-based; conditions: MDA-MB-231, light or radiation study
[6] = tested on: MDA-MB-231; assay: Photocytotoxicity in human MDA-MB-231 cells assessed as cell viablity incubated for 24 hrs under light irradiation of 50 mW.cm/2 at 400 to 700nm measured after 10 mins in normoxia condition by CCK-8 method; assay type: functional, cell-based; conditions: MDA-MB-231, light or radiation study
[7] = tested on: MDA-MB-231; assay: Downregulation of PD-L1 expression level in human MDA-MB-231 cells at 0.5 uM preincubated with chloroquine followed by compound addition and measured after 24 hrs under light irradiation of 20 mW.cm/2 at 400 to 700nm for 10 mins by Western blot analysis; assay type: functional, cell-based
[8] = tested on: 4T1; assay: Antitumor immunity against mouse 4T1 cells implanted in BALB/c mouse model assessed as upregulation of proportion of dendritic cells in lymph node at 25 mg/kg, iv measured after 14 days under light irradiation of 300 mW.cm/2 at 400 to 700nm measured after 5 mins by flow cytometry analysis; assay type: functional, organism-based; conditions: time 14.0 day
[9] = Toxicity in BALB/c mouse assessed as change in body weight at 25 mg/kg, iv measured after 14 days; assay type: organism-based; conditions: in vivo, 336 h, time 14 day
[10] = tested on: MDA-MB-231; assay: Induction of cell death in human MDA-MB-231 cells assessed as decrease in green fluorescence at 0.5 uM incubated for 24 hrs followed by light irradiation of 20 mW.cm/2 at 400 to 700nm for 10 mins by Calcein-AM/PI staining based analysis; assay type: functional
[11] = tested on: 4T1; assay: Antitumor immunity against mouse 4T1 cells implanted in BALB/c mouse model assessed as upregulation of proportion of neutrophils in lymph node at 25 mg/kg, iv measured after 14 days under light irradiation of 300 mW.cm/2 at 400 to 700nm measured after 5 mins by flow cytometry analysis; assay type: functional, organism-based; conditions: time 14.0 day
[12] = tested on: MDA-MB-231; assay: Inhibition of STAT3 phosphorylation level in human MDA-MB-231 cells at 0.5 uM incubated for 24 hrs under light irradiation of 20 mW.cm/2 at 400 to 700nm for 10 mins by Western blot analysis; assay type: functional, cell-based
[13] = tested on: 4T1; assay: Antitumor immunity against mouse 4T1 cells implanted in BALB/c mouse model assessed as increase in IL1beta secretion in tumors at 25 mg/kg, iv measured after 14 days under light irradiation of 300 mW.cm/2 at 400 to 700nm measured after 5 mins by ELISA method; assay type: functional, organism-based; conditions: time 14.0 day
[14] = Toxicity in BALB/c mouse assessed as effect on heart at 25 mg/kg, iv measured after 14 days under light irradiation of 300 mW.cm/2 at 400 to 700nm measured after 5 mins by H and E staining based analysis; assay type: organism-based; conditions: in vivo, 336 h, 0.7 µM, time 14 day
[15] = Aqueous solubility of the compound by UV-vis absorption analysis; assay type: physicochemical; conditions: water
[16] = tested on: 4T1; assay: Antitumor immunity against mouse 4T1 cells implanted in BALB/c mouse model assessed as upregulation of proportion of macrophage in lymph node at 25 mg/kg, iv measured after 14 days under light irradiation of 300 mW.cm/2 at 400 to 700nm measured after 5 mins by flow cytometry analysis; assay type: functional, organism-based; conditions: time 14.0 day
[17] = Induction of ROS generation under LED light irradiation assessed as increase in superoxide anion radical level by measuring increase in DHR123 fluorescence at 5 uM measured for 7 mins by fluorescence based analysis; assay type: functional
[18] = tested on: 4T1; assay: Induction of intracellular ROS generation in mouse 4T1 cells assessed as increase in fluorescence intensity at 0.1 uM preincubated for 2 hrs followed by compound washout further incubated with DCFH-DA probe for 30 mins under light irradiation of 20 mW.cm/2 at 400 to 700nm measured after 10 mins in presence of tiron by flow cytometry analysis; assay type: functional, cell-based
[19] = tested on: MDA-MB-231; assay: Cytotoxicity against human MDA-MB-231 cells at 0.01 to 10 uM incubated for 2 hrs under dark condition by CCK-8 method; assay type: functional, cell-based; conditions: dose 0.01-10 µM
[20] = tested on: MDA-MB-231; assay: Induction of pyroptosis in human MDA-MB-231 cells assessed as appearance of large bubbles in cell at 0.5 uM preincubated with compound for 4 hrs followed by light irradiation of 20 mW.cm/2 at 400 to 700nm for 10 mins by confocal fluorescence microscopy analysis; assay type: functional, cell-based
[21] = Toxicity in BALB/c mouse assessed as effect on kidney at 25 mg/kg, iv measured after 14 days under light irradiation of 300 mW.cm/2 at 400 to 700nm measured after 5 mins; assay type: organism-based; conditions: in vivo, 336 h, 0.7 µM, time 14 day
[22] = tested on: 4T1; assay: Induction of cell death in mouse 4T1 cells assessed as decrease in green fluorescence at 0.5 uM incubated for 24 hrs followed by light irradiation of 20 mW.cm/2 at 400 to 700nm for 10 mins by Calcein-AM/PI staining based analysis; assay type: functional
[23] = tested on: 4T1; assay: Antitumor immunity against mouse 4T1 cells implanted in BALB/c mouse model assessed as fold increase in CD4+ T cells in spleen at 25 mg/kg, iv measured after 14 days under light irradiation of 300 mW.cm/2 at 400 to 700nm measured after 5 mins […]; assay type: functional; conditions: time 14 day
[24] = tested on: MDA-MB-231; assay: Induction of pyroptosis in human MDA-MB-231 cells assessed as cell swelling at 0.5 uM preincubated with compound for 4 hrs followed by light irradiation of 20 mW.cm/2 at 400 to 700nm for 10 mins by confocal fluorescence microscopy analysis; assay type: functional, cell-based
[25] = Toxicity in BALB/c mouse assessed as effect on hemoglobin at 25 mg/kg, iv measured after 14 days; assay type: organism-based; conditions: in vivo, 336 h, time 14 day
[26] = Toxicity in BALB/c mouse assessed as change in body weight at 25 mg/kg, iv measured after 14 days under light irradiation of 300 mW.cm/2 at 400 to 700nm measured after 5 mins; assay type: organism-based; conditions: in vivo, 336 h, time 14 day
[27] = Induction of singlet oxygen production in acetonitrile solution assessed as decrease in ABDA absorption under LED light irradiation at 20 mW.cm/2 measured upto 30 mins by microplate reader analysis; assay type: functional
[28] = Drug accumulation in BALB/c mouse tumor implanted with mouse 4T1 cells assessed as increase in fluorescence intensity at 25 mg/kg, iv measured after 12 hrs by imaging based analysis; assay type: ADME, organism-based, Neoplasm; conditions: in vivo

## O=c1cc2sc3cc(N4CCNCC4)ccc3nc-2c2ccccc12
[1]
  Activity: Non-toxic
[2]
  Activity: Toxic
[3]
  Activity: Active
[4]
  Activity: Active
[5]
  IC50: 303 nM
[6]
  IC50: 356 nM
[7]
  Activity: inactive
[8]
  Activity: Active
[9]
  Activity: Non-toxic
[10]
  Activity: Active
[11]
  Activity: Active
[12]
  inhibition: Active
[13]
  Activity: Active
[14]
  Activity: Non-toxic
[15]
  solubility: > 10 mM
[16]
  Activity: Active
[17]
  Activity: Active
[18]
  Activity: inactive
[19]
  Activity: Active; Compound Showed Low Toxicity
[20]
  Activity: Active
[21]
  Activity: Non-toxic
[22]
  Activity: Active
[23]
  fold change (FC): 6.8
[24]
  Activity: Active
[25]
  Activity: Non-toxic
[26]
  Activity: Non-toxic
[27]
  Activity: Active
[28]
  Drug uptake: Active
